Here are results for 19 compounds from patent US12577228B2, “Dihydrocyclopenta-isoquinoline-sulfonamide derivatives compounds” (UCB Biopharma SRL, priority 2019, dated 2026).

Each structure is given as a SMILES string.

This assay has as its target T1, IgE-Tb / soluble IgE receptor FcεRIα with a Y131A mutation (Homo sapiens, UniProt P01854, N146Q/N252Q).
T1 construct: fused on or other part: Terbium chelate (LanthaScreen amine-reactive) on IgE-Fc; Alexa Fluor 488 hydrazide on the oxidised glycans of sFcεRIα; Both are labels and no part of the key
In words: in vitro FRET assay: binding of IgE-Tb to receptor FcεRIα-Y131A-AF488 and its inhibition by compounds. To be noted: 5 nM IgE-Tb, 25 nM FcεRIα-Y131A-AF488, 2 hours at room temperature; read-out: FRET IC50 range.

T1 sequence (P01854 104-427 N146Q/N252Q): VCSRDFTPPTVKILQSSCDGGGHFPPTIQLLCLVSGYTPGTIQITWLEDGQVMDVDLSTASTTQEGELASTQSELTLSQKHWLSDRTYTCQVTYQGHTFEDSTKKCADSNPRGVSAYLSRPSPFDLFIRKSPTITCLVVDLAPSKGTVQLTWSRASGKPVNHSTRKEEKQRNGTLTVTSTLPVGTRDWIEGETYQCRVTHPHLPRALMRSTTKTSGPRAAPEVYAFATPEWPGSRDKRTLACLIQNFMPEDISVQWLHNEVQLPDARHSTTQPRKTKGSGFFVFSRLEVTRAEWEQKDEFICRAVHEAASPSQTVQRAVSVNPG
T1 sequence (P12319 26-201 Y156A partner): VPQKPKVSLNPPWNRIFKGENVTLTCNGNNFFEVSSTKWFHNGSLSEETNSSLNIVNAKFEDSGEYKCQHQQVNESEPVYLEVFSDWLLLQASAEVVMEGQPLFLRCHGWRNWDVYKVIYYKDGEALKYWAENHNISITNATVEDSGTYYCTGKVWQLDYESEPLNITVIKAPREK

For the compound `Cn1nc(O)cc1NC1Cc2cc3cnc(C4CC4)cc3c(S(=O)(=O)NCC(C)(C)F)c2C1` (stereo not shown) [Example 112, 3-cyclopropyl-N-(2-fluoro-2-methylpropyl)-7-[(5-hydroxy-2-methylpyrazol-3-yl)amino]-7,8-dihydro-6H-cyclopenta[g]isoquinoline-5-sulfonamide], the IC50 (as a rule, the concentration needed to halve the response being measured) is 100 to 2000 nM.

Regarding `CC(C)(C)CNC(=O)C1Cc2cc3nnc(C4CC4)cc3c(S(=O)(=O)NCC(C)(C)F)c2C1` (stereo not shown) [Example 113, 3-cyclopropyl-N-(2,2-dimethylpropyl)-5-[(2-fluoro-2-methylpropyl)sulfamoyl]-7,8-dihydro-6H-cyclopenta[g]cinnoline-7-carboxamide], the half-inhibitory concentration (IC50) lay in the range of 100 to 2000 nM.

On to `CC(=O)c1ccc(N[C@@H]2Cc3cc4cnc(C5CC5)cc4c(S(=O)(=O)NCC(C)(C)F)c3C2)cc1` [Example 114, (7R)-7-(4-acetylanilino)-3-cyclopropyl-N-(2-fluoro-2-methylpropyl)-7,8-dihydro-6H-cyclopenta[g]isoquinoline-5-sulfonamide], for which the IC50 was 50 to 100 nM.

For `CC(C)(F)CNS(=O)(=O)c1c2c(cc3cnc(C4CC4)cc13)C[C@@H](Nc1ccc(C(F)F)nc1)C2` [Example 118, (7R)-3-cyclopropyl-7-[[6-(difluoromethyl)pyridin-3-yl]amino]-N-(2-fluoro-2-methylpropyl)-7,8-dihydro-6H-cyclopenta[g]isoquinoline-5-sulfonamide], the IC50 lay in the range of 10 to 50 nM.

For the compound `CC(C)(F)CNS(=O)(=O)c1c2c(cc3cnc(C4CC4)cc13)C[C@@H](Nc1cnc(Cl)cc1OCC1CC1)C2` [Example 119, (7R)-7-[[6-chloro-4-(cyclopropylmethoxy)pyridin-3-yl]amino]-3-cyclopropyl-N-(2-fluoro-2-methylpropyl)-7,8-dihydro-6H-cyclopenta[g]isoquinoline-5-sulfonamide], the IC50 is 50 to 100 nM.

With `CC(C)(F)CNS(=O)(=O)c1c2c(cc3cnc(C4CC4)cc13)C[C@@H](Nc1cncnc1OC1CCOCC1)C2` [Example 120, (7R)-3-cyclopropyl-N-(2-fluoro-2-methylpropyl)-7-[[4-(oxan-4-yloxy)pyrimidin-5-yl]amino]-7,8-dihydro-6H-cyclopenta[g]isoquinoline-5-sulfonamide], the IC50 lay in the range of 50 to 100 nM.

Take `CC(=O)Nc1cncc(NC2Cc3cc4cnc(C5CC5)cc4c(S(=O)(=O)NCC(C)(C)F)c3C2)c1` (stereo not shown) [Example 121, N-[5-[[3-cyclopropyl-5-[(2-fluoro-2-methylpropyl)sulfamoyl]-7,8-dihydro-6H-cyclopenta[g]isoquinolin-7-yl]amino]pyridin-3-yl]acetamide]: the IC50 fell in the range of 10 to 50 nM.

For `CC(C)(F)CNS(=O)(=O)c1c2c(cc3cnc(C4CC4)cc13)CC(Nc1cncc(C#N)c1)C2` (stereo not shown) [Example 122, 7-[(5-cyanopyridin-3-yl)amino]-3-cyclopropyl-N-(2-fluoro-2-methylpropyl)-7,8-dihydro-6H-cyclopenta[g]isoquinoline-5-sulfonamide], the IC50 fell in the range of 100 to 2000 nM.

With `CC(C)(F)CNS(=O)(=O)c1c2c(cc3cnc(C4CC4)cc13)CC(Nc1cncc(S(C)(=O)=O)c1)C2` (stereo not shown) [Example 123, 3-cyclopropyl-N-(2-fluoro-2-methylpropyl)-7-[(5-methylsulfonylpyridin-3-yl)amino]-7,8-dihydro-6H-cyclopenta[g]isoquinoline-5-sulfonamide], the IC50 lay in the range of 10 to 50 nM.

Regarding `CC(C)(F)CNS(=O)(=O)c1c2c(cc3cnc(C4CC4)cc13)C[C@@H](Nc1cnc(-c3nnn[nH]3)nc1)C2` [Example 124, (7R)-3-cyclopropyl-N-(2-fluoro-2-methylpropyl)-7-[[2-(1H-tetrazol-5-yl)pyrimidin-5-yl]amino]-7,8-dihydro-6H-cyclopenta[g]isoquinoline-5-sulfonamide], the IC50 lay in the range of 10 to 50 nM.

Turning to `Cn1nnc(-c2ccc(N[C@@H]3Cc4cc5cnc(C6CC6)cc5c(S(=O)(=O)NCC(C)(C)F)c4C3)cc2)n1` [Example 125, (7R)-3-cyclopropyl-N-(2-fluoro-2-methylpropyl)-7-[4-(2-methyltetrazol-5-yl)anilino]-7,8-dihydro-6H-cyclopenta[g]isoquinoline-5-sulfonamide], the IC50 is 50 to 100 nM.

For `CC(C)(F)CNS(=O)(=O)c1c2c(cc3cnc(C4CC4)cc13)C[C@@H](Nc1cnc(Cl)cc1-c1nnn[nH]1)C2` [Example 126, (7R)-7-[[6-chloro-4-(1H-tetrazol-5-yl)pyridin-3-yl]amino]-3-cyclopropyl-N-(2-fluoro-2-methylpropyl)-7,8-dihydro-6H-cyclopenta[g]isoquinoline-5-sulfonamide], the IC50 fell in the range of 100 to 2000 nM.

Consider `CC(C)(F)CNS(=O)(=O)c1c2c(cc3cnc(C4CC4)cc13)C[C@@H](NC1=CC(=O)COC1)C2` [Example 127, (7R)-3-cyclopropyl-N-(2-fluoro-2-methylpropyl)-7-[(5-oxo-2H-pyran-3-yl)amino]-7,8-dihydro-6H-cyclopenta[g]isoquinoline-5-sulfonamide], for which the IC50 was in the range of 100 to 2000 nM.

As to `Cn1ccc(Oc2ccncc2N[C@@H]2Cc3cc4cnc(C5CC5)cc4c(S(=O)(=O)NCC(C)(C)F)c3C2)n1` [Example 128, (7R)-3-cyclopropyl-N-(2-fluoro-2-methylpropyl)-7-[[4-(1-methylpyrazol-3-yl)oxypyridin-3-yl]amino]-7,8-dihydro-6H-cyclopenta[g]isoquinoline-5-sulfonamide], the IC50 lay within 50 to 100 nM.

Regarding `Cc1nnc(-c2ncc(N[C@@H]3Cc4cc5cnc(C6CC6)cc5c(S(=O)(=O)NCC(C)(C)F)c4C3)cn2)o1` [Example 129, (7R)-3-cyclopropyl-N-(2-fluoro-2-methylpropyl)-7-[[2-(5-methyl-1,3,4-oxadiazol-2-yl)pyrimidin-5-yl]amino]-7,8-dihydro-6H-cyclopenta[g]isoquinoline-5-sulfonamide], the IC50 was in the range of 10 to 50 nM.

As for `CC(C)(F)CNS(=O)(=O)c1c2c(cc3cnc(C4CC4)cc13)C[C@@H](NC(=O)c1c[nH]c3ccccc13)C2` [Example 130, N-[(7R)-3-cyclopropyl-5-[(2-fluoro-2-methylpropyl)sulfamoyl]-7,8-dihydro-6H-cyclopenta[g]isoquinolin-7-yl]-1H-indole-3-carboxamide], the IC50 was in the range of 10 to 50 nM.

For the compound `CC(C)(F)CNS(=O)(=O)c1c2c(cc3cnc(C4CC4)cc13)C[C@@H](NC(=O)c1c[nH]c3ccc(F)cc13)C2` [Example 131, N-[(7R)-3-cyclopropyl-5-[(2-fluoro-2-methylpropyl)sulfamoyl]-7,8-dihydro-6H-cyclopenta[g]isoquinolin-7-yl]-5-fluoro-1H-indole-3-carboxamide], the IC50 was 10 to 50 nM.

In the case of `Cn1cc(C(=O)N[C@@H]2Cc3cc4cnc(C5CC5)cc4c(S(=O)(=O)NCC(C)(C)F)c3C2)c2ccccc21` [Example 132, N-[(7R)-3-cyclopropyl-5-[(2-fluoro-2-methylpropyl)sulfamoyl]-7,8-dihydro-6H-cyclopenta[g]isoquinolin-7-yl]-1-methylindole-3-carboxamide], the IC50 was in the range of 10 to 50 nM.

Take `COc1ccc2c(C(=O)N[C@@H]3Cc4cc5cnc(C6CC6)cc5c(S(=O)(=O)NCC(C)(C)F)c4C3)c[nH]c2c1` [Example 133, N-[(7R)-3-cyclopropyl-5-[(2-fluoro-2-methylpropyl)sulfamoyl]-7,8-dihydro-6H-cyclopenta[g]isoquinolin-7-yl]-6-methoxy-1H-indole-3-carboxamide]: the IC50 fell in the range of 10 to 50 nM.
